Test results reported in publication PMC6270420, “Antibacterial Activity of Salicylanilide 4-(Trifluoromethyl)benzoates” (Molecules, 2013).
In brackets after ≈: the same amount, converted by molar mass. Read-outs that look alike come from different tables or passages of the source.

Assays:
[1] = tested on: Mtb. 7357/1988; test: microbe, parasite or virus in culture; type: cell-based; details: Mycobacterium tuberculosis, read-out: MIC Mtb. 7357/1988
[2] = tested on: Mtb. 53/2009; test: microbe, parasite or virus in culture; type: cell-based; details: Mycobacterium tuberculosis, read-out: MIC Mtb. 53/2009
[3] = target: T1, mycobacterial isocitrate lyase (ICL1, Rv0467) (Mycobacterium tuberculosis, UniProt P9WKK7); test: Isocitrate lyase inhibition assay (ICL1); type: biochemical, Mycobacterium tuberculosis H37Rv; details: 10 μmol/L; read-out: % ICL inhibition at 10 μmol/L (± standard deviation)
T1 construct: His tag (from pET-28b(+)); made in house; host or cells: E. coli BL21(DE3), pET-28b(+) plasmid
T1 sequence (P9WKK7 1-428): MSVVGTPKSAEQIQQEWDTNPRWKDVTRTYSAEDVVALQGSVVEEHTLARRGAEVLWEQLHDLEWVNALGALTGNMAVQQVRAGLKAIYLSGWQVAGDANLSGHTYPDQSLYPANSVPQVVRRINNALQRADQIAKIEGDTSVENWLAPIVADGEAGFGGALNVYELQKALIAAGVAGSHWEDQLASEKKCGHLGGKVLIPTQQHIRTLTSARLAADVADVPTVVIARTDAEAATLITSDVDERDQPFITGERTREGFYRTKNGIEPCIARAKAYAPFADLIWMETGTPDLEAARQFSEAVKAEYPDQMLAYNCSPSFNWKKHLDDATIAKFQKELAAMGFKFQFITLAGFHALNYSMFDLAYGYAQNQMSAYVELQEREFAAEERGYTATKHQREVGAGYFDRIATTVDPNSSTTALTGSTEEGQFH

[4] = tested on: Mtb. 234/2005; test: microbe, parasite or virus in culture; type: cell-based; details: Mycobacterium tuberculosis, read-out: MIC Mtb. 234/2005
[5] = tested on: Mtb. Praha 1; test: microbe, parasite or virus in culture; type: cell-based; details: Mycobacterium tuberculosis, read-out: MIC Mtb. Praha 1
[6] = tested on: Mtb. 9449/2006; test: microbe, parasite or virus in culture; type: cell-based; details: Mycobacterium tuberculosis, read-out: MIC Mtb. 9449/2006
[7] = tested on: Mycobacterium avium 330/88; test: Antimycobacterial MIC micromethod; type: cell-based
[8] = tested on: Mycobacterium kansasii 235/80; test: Antimycobacterial MIC micromethod; type: cell-based; details: read-out: MIC M. kansasii 235/80
[9] = tested on: Mtb. Praha 131 (XDR-TB); test: microbe, parasite or virus in culture; type: cell-based; details: Mycobacterium tuberculosis, read-out: MIC Mtb. Praha 131 (XDR-TB)
[10] = tested on: M. kansasii 6509/96 (clinically isolated strain); test: Antimycobacterial MIC micromethod; type: cell-based; details: Mycobacterium kansasii, read-out: MIC M. kansasii 6509/96
[11] = tested on: Mycobacterium tuberculosis 331/88 (H37Rv); test: Antimycobacterial MIC micromethod, Šula's medium; type: cell-based; details: read-out: MIC Mtb. 331/88

SMILES	MIC ([1]; 336 h) [µM]	MIC ([1]; 504 h) [µM]	MIC ([2]; 336 h) [µM]	MIC ([2]; 504 h) [µM]	inhibition at 10 µM [3] [%]	MIC ([4]; 336 h) [µM]	MIC ([4]; 504 h) [µM]	MIC ([5]; 336 h) [µM]	MIC ([5]; 504 h) [µM]	MIC ([6]; 336 h) [µM]	MIC ([7]; 330/88, 336 h, 14 d) [µM]	MIC ([7]; 330/88, 504 h, 21 d) [µM]	MIC ([8]; 235/80, 168 h, 7 d) [µM]	MIC ([8]; 235/80, 336 h, 14 d) [µM]	MIC ([8]; 235/80, 504 h, 21 d) [µM]	MIC ([10]; 168 h, 7 d) [µM]	MIC ([10]; 336 h, 14 d) [µM]	MIC ([10]; 504 h, 21 d) [µM]	MIC ([11]; 336 h, 14 d) [µM]	MIC ([11]; 504 h, 21 d) [µM]	also measured
O=C(Oc1ccc(Cl)cc1C(=O)Nc1cccc(Cl)c1)c1ccc(C(F)(F)F)cc1 [1a]	4 (≈ 1.82 µg/mL)	4 (≈ 1.82 µg/mL)	4 (≈ 1.82 µg/mL)	4 (≈ 1.82 µg/mL)	18 ± 1.9	4 (≈ 1.82 µg/mL)	4 (≈ 1.82 µg/mL)	4 (≈ 1.82 µg/mL)	4 (≈ 1.82 µg/mL)	4 (≈ 1.82 µg/mL)	8 (≈ 3.63 µg/mL)	16 (≈ 7.27 µg/mL)	0.5 (≈ 0.227 µg/mL)	2 (≈ 0.908 µg/mL)	4 (≈ 1.82 µg/mL)	2 (≈ 0.908 µg/mL)	8 (≈ 3.63 µg/mL)	8 (≈ 3.63 µg/mL)	2 (≈ 0.908 µg/mL)	4 (≈ 1.82 µg/mL)	MIC ([6]; 504 h): 4 µM (≈ 1.82 µg/mL); MIC ([9]; 336 h): 4 µM (≈ 1.82 µg/mL); MIC ([9]; 504 h): 4 µM (≈ 1.82 µg/mL)
O=C(Oc1ccc(Cl)cc1C(=O)Nc1ccc(Cl)cc1)c1ccc(C(F)(F)F)cc1 [1c]	2 (≈ 0.908 µg/mL)	2 (≈ 0.908 µg/mL)	4 (≈ 1.82 µg/mL)	4 (≈ 1.82 µg/mL)	12 ± 2.7	4 (≈ 1.82 µg/mL)	4 (≈ 1.82 µg/mL)	2 (≈ 0.908 µg/mL)	2 (≈ 0.908 µg/mL)	2 (≈ 0.908 µg/mL)	4 (≈ 1.82 µg/mL)	8 (≈ 3.63 µg/mL)	1 (≈ 0.454 µg/mL)	2 (≈ 0.908 µg/mL)	2 (≈ 0.908 µg/mL)	1 (≈ 0.454 µg/mL)	4 (≈ 1.82 µg/mL)	4 (≈ 1.82 µg/mL)	2 (≈ 0.908 µg/mL)	2 (≈ 0.908 µg/mL)	MIC ([6]; 504 h): 2 µM (≈ 0.908 µg/mL); MIC ([9]; 336 h): 2 µM (≈ 0.908 µg/mL); MIC ([9]; 504 h): 2 µM (≈ 0.908 µg/mL)
O=C(Oc1cc(Cl)ccc1C(=O)Nc1ccc(Cl)cc1)c1ccc(C(F)(F)F)cc1 [1d]	4 (≈ 1.82 µg/mL)	4 (≈ 1.82 µg/mL)	4 (≈ 1.82 µg/mL)	4 (≈ 1.82 µg/mL)	12 ± 2.3	4 (≈ 1.82 µg/mL)	4 (≈ 1.82 µg/mL)	2 (≈ 0.908 µg/mL)	4 (≈ 1.82 µg/mL)	4 (≈ 1.82 µg/mL)	4 (≈ 1.82 µg/mL)	8 (≈ 3.63 µg/mL)	1 (≈ 0.454 µg/mL)	4 (≈ 1.82 µg/mL)	4 (≈ 1.82 µg/mL)	1 (≈ 0.454 µg/mL)	4 (≈ 1.82 µg/mL)	4 (≈ 1.82 µg/mL)	4 (≈ 1.82 µg/mL)	4 (≈ 1.82 µg/mL)	MIC ([6]; 504 h): 4 µM (≈ 1.82 µg/mL); MIC ([9]; 336 h): 2 µM (≈ 0.908 µg/mL); MIC ([9]; 504 h): 4 µM (≈ 1.82 µg/mL)
O=C(Oc1ccc(Cl)cc1C(=O)Nc1ccc(Br)cc1)c1ccc(C(F)(F)F)cc1 [1i]	2 (≈ 0.997 µg/mL)	4 (≈ 1.99 µg/mL)	4 (≈ 1.99 µg/mL)	4 (≈ 1.99 µg/mL)	18 ± 1.2	2 (≈ 0.997 µg/mL)	2 (≈ 0.997 µg/mL)	2 (≈ 0.997 µg/mL)	2 (≈ 0.997 µg/mL)	2 (≈ 0.997 µg/mL)	8 (≈ 3.99 µg/mL)	8 (≈ 3.99 µg/mL)	1 (≈ 0.499 µg/mL)	4 (≈ 1.99 µg/mL)	8 (≈ 3.99 µg/mL)	2 (≈ 0.997 µg/mL)	8 (≈ 3.99 µg/mL)	8 (≈ 3.99 µg/mL)	2 (≈ 0.997 µg/mL)	2 (≈ 0.997 µg/mL)	MIC ([6]; 504 h): 4 µM (≈ 1.99 µg/mL); MIC ([9]; 336 h): 2 µM (≈ 0.997 µg/mL); MIC ([9]; 504 h): 2 µM (≈ 0.997 µg/mL)
O=C(Oc1cc(Cl)ccc1C(=O)Nc1cccc(F)c1)c1ccc(C(F)(F)F)cc1 [1l]	–	–	–	–	≥ 20	–	–	–	–	–	8 (≈ 3.5 µg/mL)	16 (≈ 7 µg/mL)	4 (≈ 1.75 µg/mL)	8 (≈ 3.5 µg/mL)	8 (≈ 3.5 µg/mL)	8 (≈ 3.5 µg/mL)	8 (≈ 3.5 µg/mL)	16 (≈ 7 µg/mL)	4 (≈ 1.75 µg/mL)	4 (≈ 1.75 µg/mL)	–
